In ChEMBL document CHEMBL5329215, “Review and prospects of targeted therapies for Spleen tyrosine kinase (SYK)” (Bioorg Med Chem, 2023):

How the values were obtained:
[1] = target: Tyrosine-protein kinase SYK (Homo sapiens, UniProt P43405); assay: Inhibition of human SYK at Py+3 pocket
[2] = PROTAC activity at E3 ubiquitin ligase (unknown origin)/STAT5 (unknown origin) assessed as […]

IC50 [1] [µM]	EC50 [2] [µM]	SMILES
38		O=C(O)CCCCN(CCCC1CCCCC1)S(=O)(=O)/C=C/c1ccc(NC(=O)C2CCC(C(C(=O)O)C(=O)O)CC2)cc1 (configuration not stated)
	0.1	CN(CCCC#Cc1cccc2c1CN(C1CCC(=O)NC1=O)C2=O)C(=O)CCN(C(=O)[C@@H]1CCCN1C(=O)[C@H](NC(=O)c1cc2cc(C(F)(F)P(=O)(O)O)ccc2s1)C(C)(C)C)c1ccc(-c2nccs2)cc1 (some centres not stated)
